Active and inactive are the calls of the source. The rule behind the calls is not given here.
System: not listed separately
Test: Mycobacterium tuberculosis growth inhibition, OD600, confirmatory dose response, dry powder (AID 743186)
Details: Mycobacterium tuberculosis growth, OD600; at 6 µM (top of the series)

Row | SMILES | growth change, negative = inhibition
1 | O=C(COc1c(Br)cc(Br)c2cccnc12)N1CCCCC1 | -5.71% (inactive)
2 | CCOC(=O)c1c(C)n(C)c2ccc(OC(C)C(=O)OC)cc12 (stereo unspecified) | -3.72% (inactive)
3 | CCOC(=O)COc1ccc2c(c1)C(=O)CC1(CCCCC1)O2 | -49.6% (inactive)
4 | CCCC(C)C(=O)Nc1ccc(Cl)cn1 (stereo unspecified) | -8.24% (inactive)
5 | O=C(OCc1ccc(Cl)c(Cl)c1)c1ccccn1 | -2.92% (inactive)
6 | Fc1ccc(-c2ccc(CNCc3ccccn3)o2)cc1Cl | -11.2% (inactive)
7 | O=C(COc1cccc2ccccc12)Nc1nc2ccccc2[nH]1 | 3.31% (inactive)
8 | CCCOC(=O)c1ccc(NC(=O)c2ccc(Br)o2)cc1 | 4.84% (inactive)
9 | CCc1ccc(OCCCC(=O)NCc2ccco2)cc1 | 2.01% (inactive)
10 | CCOC(=O)COc1ccc2c(=O)c(-c3ccccc3)coc2c1 | -66.9% (inactive)
11 | CCOC(=O)COc1ccc2c(=O)cc(-c3ccccc3)oc2c1 | -72.2% (inactive)
12 | O=C(OCCCCN1C(=O)c2ccccc2C1=O)c1ccc(Br)o1 | 1.08% (inactive)
13 | NC(=O)C1(N2CCCCC2)CCN(C2CC(=O)N(CCc3ccccc3)C2=O)CC1 (stereo unspecified) | 12.1% (inactive)
14 | O=C(NC1CC2CCC1C2)C1COc2ccccc2O1 (stereo unspecified) | -8.57% (inactive)
15 | CC(=O)c1ccc(NC(=O)c2cc(CC(C)C)on2)cc1 | -8.04% (inactive)
16 | O=C(CCN1CCC(c2cccs2)=N1)c1cccs1 | -5.74% (inactive)
17 | CCOC(=O)c1sc(NC(=O)CCN2CCOCC2)c(C(=O)OCC)c1C | 2.46% (inactive)
18 | Clc1cccc(-c2ccc(CNCc3ccccn3)o2)c1 | -12.5% (inactive)
19 | NC(=O)COc1ccc2cc(-c3ccc(F)cc3)c(=O)oc2c1 | 0.842% (inactive)

System: Mycobacterium tuberculosis growth, OD600
Test: as above
Details: not given

Row | SMILES | AC90
20 | CS(=O)(=O)Cc1nc2ccccc2oc1=O | > 6 µM (inactive)
21 | O=C(NCc1cccs1)c1ccc(Br)o1 | > 6 µM (inactive)
22 | C=CCn1c(NC(=O)c2ccccc2)nc2ccccc21 | > 6 µM (inactive)
23 | COC(=O)COc1ccc2c(=O)c(Oc3ccccc3)c(C)oc2c1 | > 6 µM (inactive)
24 | c1ccc(Nc2nc(-c3ccccn3)cs2)cc1 | > 6 µM (inactive)
25 | O=C(Nc1nc2ccccc2[nH]1)c1cccc(Cl)c1 | > 6 µM (inactive)
26 | Cc1ccc(C)c(-c2csc(NC(=O)c3cnccn3)n2)c1 | > 6 µM (inactive)
27 | Cc1cc(C)n2nc(S(=O)(=O)Nc3c(Cl)cccc3Cl)nc2n1 | 3.89 µM
28 | Cc1cccc(Cn2ccc(NC(=O)c3ccc4c(c3)OCO4)n2)c1 | 1.67 µM
29 | Cc1cc(NC(=O)C2CCCCC2)n(-c2nc3ccccc3[nH]2)n1 | > 6 µM (inactive)
30 | CCCCN(C/C=C/c1ccccc1OC)Cc1ccccc1 | > 6 µM (inactive)
31 | Cc1nnc(NC(=O)c2ccc3ccccc3c2)o1 | 2.96 µM
32 | Cc1cccc(C)c1N1C(=O)CC(N2CCSCC2)C1=O (stereo unspecified) | > 6 µM (inactive)
33 | COC(=O)COc1cccc(NC(=O)c2ccc(Cl)cc2)c1 | > 6 µM (inactive)
34 | Clc1cccc(CNCCNCc2cccc(Cl)c2)c1 | > 6 µM (inactive)
35 | NC1CCN(c2c(F)cc3c(=O)c(C(=O)O)cn(C4CC4)c3c2Cl)C1 (stereo unspecified) | 0.176 µM
36 | Brc1c(-c2ccc3c(c2)OCO3)nc2ncccn12 | 5.4 µM

— PubChem BioAssay AID743186 (Broad Institute, 2013)
